Assay results: patent US20100120690A1, “Polypeptides Having Antimicrobial Activity and Polynucleotides Encoding Same” (Novozymes Adenium Biotech A/S, priority 2005, published 2010)

Tests used:
[1] = test system: Staphylococcus carnosus ATCC51365; assay: Yeast screening assay: radial diffusion assay of yeast supernatants; assay type: cell-based; parameters: key: An activity of 3 is better than Plectasin; An activity of 2 corresponds to the activity of Plectasin; 1 is worse than Plectasin; details: yeast supernatant, clearing zone in radial diffusion assay
Outline: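 Activity scores (1 worse, 2 equal, 3 better than wild-type plectasin) come from the size of the radial-diffusion clearing zone against S. carnosus at 5×10^5 cfu/mL. Test samples were culture supernatants of yeast transformants induced with galactose for 3 days at 30 °C, and plates were developed at 37 °C with MTT.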

S. aureus = assay: Minimal Inhibitory Concentration, NCCLS guidelines (Example 4); assay type: cell-based, Staphylococcus aureus; details: purified peptide
Procedure: (§1) The Minimal Inhibitory Concentration (MIC, micrograms/mL) was determined to test for their antimicrobial activity following the NCCLS guidelines (Clinical and Laboratory Standards Institute; formerly known as National Committee for Clinical and Laboratory Standards).

M. luteus = assay: as above; assay type: cell-based, Micrococcus luteus; details: purified peptide
Procedure: as §1

[2] = test system: Staphylococcus aureus, ATCC 25923; assay: MIC, NCCLS/CLSI guidelines (Example 5), strain B; assay type: cell-based; details: average of two independent experiments
Outline: (§2)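 Expressed, purified plectasin wild-type and variant peptides were tested for minimal inhibitory concentration under NCCLS/CLSI guidelines. Values are the mean of two independent experiments, scored relative to wild-type plectasin MIC: 0 >100%, 1 80-100%, 2 50-80%, 3 <50%.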

[3] = test system: Staphylococcus aureus, ATCC 29737; assay: MIC, NCCLS/CLSI guidelines (Example 5), strain C; assay type: cell-based; details: average of two independent experiments
Outline: as §2

[4] = test system: Staphylococcus aureus, MRSA ST5 (2001); assay: MIC, NCCLS/CLSI guidelines (Example 5), strain D; assay type: cell-based; details: average of two independent experiments
Outline: as §2

[5] = test system: panel of 6 different strains of Staphylococcus aureus; assay: Average MIC, NCCLS/CLSI guidelines using caMHB (Example 6); assay type: cell-based; details: average over 6 S. aureus strains, duplicate; MIC above 32 counted as 64; read after 18-24 hours at 37° C.
Outline: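 Six Staphylococcus aureus strains, MSSA and MRSA, were exposed in duplicate to peptide dilutions from 32 down to 0.03 microgram/mL in caMHB following CLSI guidance. Growth was scored after 18-24 h incubation at 37° C. The tabulated value is the mean MIC, with 64 used for any MIC >32 micrograms/mL.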

GFGCNGPWDEDDMQCHNHCKSIKGYKGGYCAKGGFVCKCY (listed as Pseudoplectania nigrella) [wildtype, wildtype plectasin, parent antimicrobial polypeptide, reference compound]
Activity (antimicrobial activity relative to the activity of plectasin) [1]: 2
MIC against S. aureus (S. aureus): 8 micrograms/mL
MIC against M. luteus (M. luteus): 32 micrograms/mL
MIC, strain B [2]: (22 μg/mL)
Relative MIC, strain B ([2]; relative to wildtype Plectasin): 1 (80-100% of Plectasin wildtype MIC)
MIC, strain C [3]: (4 μg/mL)
Relative MIC, strain C ([3]; relative to wildtype Plectasin): 1 (80-100% of Plectasin wildtype MIC)
MIC, strain D [4]: (15 μg/mL)
Relative MIC, strain D ([4]; relative to wildtype Plectasin): 1 (80-100% of Plectasin wildtype MIC)
Average MIC [5]: 14 micrograms/mL
